Reference: patent publication US4435387A, “Poly-cation salts of bis (or tris) 4-O-polyhexose-thio-arylene sulfate derivatives” (American Cyanamid Company, priority 1982, dated 1984)
Like-named read-outs stand apart in the source and are kept apart here.

Tests used:
activated human C1 = target: T1, activated human C1 (Homo sapiens, UniProt P09871); experiment: Test Code 026 (C1 inhibitor); format: biochemical; conditions: in vitro; twofold serial dilution assay, higher well number indicates higher activity
T1 construct: fluid-phase C2 destruction with C4 present
T1 sequence (P09871 16-688): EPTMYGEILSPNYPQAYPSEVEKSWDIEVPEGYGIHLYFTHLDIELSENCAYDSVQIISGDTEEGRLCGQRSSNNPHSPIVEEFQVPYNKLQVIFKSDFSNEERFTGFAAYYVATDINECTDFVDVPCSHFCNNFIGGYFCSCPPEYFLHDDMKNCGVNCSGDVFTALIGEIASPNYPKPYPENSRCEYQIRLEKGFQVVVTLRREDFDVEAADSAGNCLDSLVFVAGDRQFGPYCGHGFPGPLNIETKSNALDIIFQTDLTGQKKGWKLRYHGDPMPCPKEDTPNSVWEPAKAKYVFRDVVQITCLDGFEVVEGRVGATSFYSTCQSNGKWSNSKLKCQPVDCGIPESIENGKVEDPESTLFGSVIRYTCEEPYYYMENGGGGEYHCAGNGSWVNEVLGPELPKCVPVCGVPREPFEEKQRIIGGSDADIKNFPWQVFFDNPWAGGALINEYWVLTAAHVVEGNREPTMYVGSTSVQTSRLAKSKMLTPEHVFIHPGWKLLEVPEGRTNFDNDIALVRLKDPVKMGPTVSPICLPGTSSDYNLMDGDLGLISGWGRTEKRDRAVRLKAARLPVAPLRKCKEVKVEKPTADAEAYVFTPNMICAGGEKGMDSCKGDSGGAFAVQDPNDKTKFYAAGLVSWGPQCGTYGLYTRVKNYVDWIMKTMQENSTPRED
T1 sequence (P00736 18-705 partner): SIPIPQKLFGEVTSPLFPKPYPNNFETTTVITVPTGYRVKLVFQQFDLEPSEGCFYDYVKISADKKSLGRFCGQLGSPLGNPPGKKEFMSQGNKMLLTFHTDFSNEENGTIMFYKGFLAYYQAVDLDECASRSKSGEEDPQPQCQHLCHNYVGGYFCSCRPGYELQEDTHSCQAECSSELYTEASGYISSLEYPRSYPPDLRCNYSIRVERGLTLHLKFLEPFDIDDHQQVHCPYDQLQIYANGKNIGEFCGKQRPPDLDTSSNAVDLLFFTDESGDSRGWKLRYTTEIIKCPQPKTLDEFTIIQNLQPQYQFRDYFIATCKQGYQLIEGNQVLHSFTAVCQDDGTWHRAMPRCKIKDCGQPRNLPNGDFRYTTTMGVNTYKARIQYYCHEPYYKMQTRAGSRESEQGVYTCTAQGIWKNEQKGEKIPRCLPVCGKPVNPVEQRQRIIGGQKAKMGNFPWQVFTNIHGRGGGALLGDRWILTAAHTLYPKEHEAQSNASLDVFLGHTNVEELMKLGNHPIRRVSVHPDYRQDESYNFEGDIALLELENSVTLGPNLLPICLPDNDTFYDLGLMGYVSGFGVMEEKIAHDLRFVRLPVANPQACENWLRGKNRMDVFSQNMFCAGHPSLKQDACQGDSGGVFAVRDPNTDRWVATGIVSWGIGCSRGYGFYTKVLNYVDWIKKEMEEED
T1 sequence (P02745 23-245 partner): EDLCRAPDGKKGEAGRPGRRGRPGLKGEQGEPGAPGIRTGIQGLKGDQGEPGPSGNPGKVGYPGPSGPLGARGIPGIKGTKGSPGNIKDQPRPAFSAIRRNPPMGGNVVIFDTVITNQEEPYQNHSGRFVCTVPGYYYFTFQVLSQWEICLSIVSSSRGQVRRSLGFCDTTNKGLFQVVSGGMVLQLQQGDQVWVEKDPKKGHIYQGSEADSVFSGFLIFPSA
T1 sequence (P02746 28-253 partner): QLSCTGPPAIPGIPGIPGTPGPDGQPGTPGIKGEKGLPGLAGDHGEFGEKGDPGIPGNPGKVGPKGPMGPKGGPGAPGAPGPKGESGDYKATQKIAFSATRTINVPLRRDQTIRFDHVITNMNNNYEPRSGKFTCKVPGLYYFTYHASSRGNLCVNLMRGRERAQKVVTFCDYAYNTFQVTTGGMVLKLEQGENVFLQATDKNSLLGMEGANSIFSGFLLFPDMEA
T1 sequence (P02747 29-245 partner): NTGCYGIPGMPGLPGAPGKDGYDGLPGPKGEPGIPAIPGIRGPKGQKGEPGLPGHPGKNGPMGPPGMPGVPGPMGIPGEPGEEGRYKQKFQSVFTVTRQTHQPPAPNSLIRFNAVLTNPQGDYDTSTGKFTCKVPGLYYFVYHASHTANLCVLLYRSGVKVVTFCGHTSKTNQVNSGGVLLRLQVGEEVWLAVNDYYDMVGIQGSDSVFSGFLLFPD
Method: (§1) Percent inhibition is calculated by comparison with simultaneous controls.
(§2) **Activity in wells, a serial dilution assay; higher well number indicate
(§3) higher activity. The serial dilutions are twofold.

[1] = system: late components of human complement (C3-C9); experiment: Test Code 035 (C3-C9 inhibitor), lysis of EAC 142; format: biochemical; conditions: in vitro; twofold serial dilution assay, higher well number indicates higher activity
Method: as §1, §2, §3

[2] = system: hereditary angioneurotic edema; conditions: literature reports; cited from earlier work
[3] = system: complement activity of guinea pig sera; experiment: Guinea Pig Intraperitoneal Test (GPIP); format: in vivo; conditions: Cavia porcellus, ip, 200 mg/kg i.p.
Method: as §1

[4] = system: human serum total hemolytic complement activity; conditions: in vitro and in vivo, judged by reduction in total hemolytic complement activity; Pathol. Biol. 25 (1977); cited from earlier work

Row | Molecule | C-1 026 Wells (activated human C1) | C-Late 035 Wells [1] | other results
1 | O=S(=O)(O)OC[C@H]1O[C@@H](Sc2ccc(NS(=O)(=O)c3cc(S(=O)(=O)Nc4ccc(S[C@@H]5O[C@H](COS(=O)(=O)O)[C@@H](O[C@H]6O[C@H](COS(=O)(=O)O)[C@@H](OS(=O)(=O)O)[C@H](OS(=O)(=O)O)[C@H]6OS(=O)(=O)O)[C@H](OS(=O)(=O)O)[C@H]5OS(=O)(=O)O)cc4)cc(S(=O)(=O)Nc4ccc(S[C@@H]5O[C@H](COS(=O)(=O)O)[C@@H](O[C@H]6O[C@H](COS(=O)(=O)O)[C@@H](OS(=O)(=O)O)[C@H](OS(=O)(=O)O)[C@H]6OS(=O)(=O)O)[C@H](OS(=O)(=O)O)[C@H]5OS(=O)(=O)O)cc4)c3)cc2)[C@H](OS(=O)(=O)O)[C@@H](OS(=O)(=O)O)[C@@H]1O[C@H]1O[C@H](COS(=O)(=O)O)[C@@H](OS(=O)(=O)O)[C@H](OS(=O)(=O)O)[C@H]1OS(=O)(=O)O.[Na].[Na].[Na].[Na].[Na].[Na].[Na].[Na].[Na].[Na].[Na].[Na].[Na].[Na].[Na].[Na].[Na].[Na].[Na].[Na].[Na] [Heneicosasodium N,N',N"-tris[4-[[2,3,6-tri-O-sulfo-4-O-(2,3,4,6-tetra-O-sulfo-α-D-glucopyranosyl)-β-D-glucopyranosyl]thio]phenyl]-1,3,5-benzenetrisulfonamide] | 9 Wells | 3 Wells | 
2 | O=C(Nc1ccc(S[C@@H]2O[C@H](COS(=O)(=O)O)[C@@H](O[C@H]3O[C@H](COS(=O)(=O)O)[C@@H](OS(=O)(=O)O)[C@H](OS(=O)(=O)O)[C@H]3OS(=O)(=O)O)[C@H](OS(=O)(=O)O)[C@H]2OS(=O)(=O)O)cc1)c1cc(C(=O)Nc2ccc(S[C@@H]3O[C@H](COS(=O)(=O)O)[C@@H](O[C@H]4O[C@H](COS(=O)(=O)O)[C@@H](OS(=O)(=O)O)[C@H](OS(=O)(=O)O)[C@H]4OS(=O)(=O)O)[C@H](OS(=O)(=O)O)[C@H]3OS(=O)(=O)O)cc2)cc(C(=O)Nc2ccc(S[C@@H]3O[C@H](COS(=O)(=O)O)[C@@H](O[C@H]4O[C@H](COS(=O)(=O)O)[C@@H](OS(=O)(=O)O)[C@H](OS(=O)(=O)O)[C@H]4OS(=O)(=O)O)[C@H](OS(=O)(=O)O)[C@H]3OS(=O)(=O)O)cc2)c1.[Na].[Na].[Na].[Na].[Na].[Na].[Na].[Na].[Na].[Na].[Na].[Na].[Na].[Na].[Na].[Na].[Na].[Na].[Na].[Na].[Na] [Heneicosasodium N,N',N"-tris[4-[[2,3,6-tri-O-sulfo-4-O-(2,3,4,6-tetra-O-sulfo-α-D-glucopyranosyl)-β-D-glucopyranosyl]thio]phenyl]-1,3,5-benzenetricarboxamide] | 8 Wells | 2 Wells | 
3 | NCCCCCC(=O)O [epsilon-aminocaproic acid] |  |  | treatment of hereditary angioneurotic edema [2]: used with success
4 | O=C(Nc1ccc(S[C@@H]2O[C@H](COS(=O)(=O)O)[C@@H](O[C@H]3O[C@H](COS(=O)(=O)O)[C@@H](OS(=O)(=O)O)[C@H](OS(=O)(=O)O)[C@H]3OS(=O)(=O)O)[C@H](OS(=O)(=O)O)[C@H]2OS(=O)(=O)O)cc1)c1ccc(C(=O)Nc2ccc(S[C@@H]3O[C@H](COS(=O)(=O)O)[C@@H](O[C@H]4O[C@H](COS(=O)(=O)O)[C@@H](OS(=O)(=O)O)[C@H](OS(=O)(=O)O)[C@H]4OS(=O)(=O)O)[C@H](OS(=O)(=O)O)[C@H]3OS(=O)(=O)O)cc2)cc1.[Na].[Na].[Na].[Na].[Na].[Na].[Na].[Na].[Na].[Na].[Na].[Na].[Na].[Na] [Tetradecasodium N,N'-bis[4-[[2,3,6-tri-O-sulfo-4-O-(2,3,4,6-tetra-O-sulfo-α-D-glucopyranosyl)-β-D-glucopyranosyl]thio]phenyl]-1,4-benzenedicarboxamide] | 9 Wells | 2 Wells | inhibition at 200 mg/kg ([3]; serum complement 2 hours after injection, read-out: In vivo Activity (Guinea Pig % Inhibition) Intraperitoneal, 2 hours): 87%; inhibition at 200 mg/kg ([3]; serum complement 6 hours after injection, read-out: In vivo Activity (Guinea Pig % Inhibition) Intraperitoneal, 6 hours): 90%; inhibition at 200 mg/kg ([3]; serum complement 24 hours after injection, read-out: In vivo Activity (Guinea Pig % Inhibition) Intraperitoneal, 24 hours): 62%
5 | O=S(=O)(O)OC[C@H]1O[C@@H](Sc2ccc(NS(=O)(=O)c3cc(S(=O)(=O)Nc4ccc(S[C@@H]5O[C@H](COS(=O)(=O)O)[C@@H](O[C@@H]6O[C@H](COS(=O)(=O)O)[C@@H](OS(=O)(=O)O)[C@H](OS(=O)(=O)O)[C@H]6OS(=O)(=O)O)[C@H](OS(=O)(=O)O)[C@H]5OS(=O)(=O)O)cc4)cc(S(=O)(=O)Nc4ccc(S[C@@H]5O[C@H](COS(=O)(=O)O)[C@@H](O[C@@H]6O[C@H](COS(=O)(=O)O)[C@@H](OS(=O)(=O)O)[C@H](OS(=O)(=O)O)[C@H]6OS(=O)(=O)O)[C@H](OS(=O)(=O)O)[C@H]5OS(=O)(=O)O)cc4)c3)cc2)[C@H](OS(=O)(=O)O)[C@@H](OS(=O)(=O)O)[C@@H]1O[C@@H]1O[C@H](COS(=O)(=O)O)[C@@H](OS(=O)(=O)O)[C@H](OS(=O)(=O)O)[C@H]1OS(=O)(=O)O.[Na].[Na].[Na].[Na].[Na].[Na].[Na].[Na].[Na].[Na].[Na].[Na].[Na].[Na].[Na].[Na].[Na].[Na].[Na].[Na].[Na] [Heneicosasodium N,N',N"-tris[4-[[2,3,6-tri-O-sulfo-4-O-(2,3,4,6-tetra-O-sulfo-β-D-glucopyranosyl)-β-D-glucopyranosyl]thio]phenyl]-1,3,5-benzenetrisulfonamide] | 12 Wells | 3 Wells | 
6 | pentosan-polysulfoester |  |  | anticomplementary activity on human serum [4]: anticomplementary activity
7 | NC[C@H]1CC[C@H](C(=O)O)CC1 [tranexamic acid] |  |  | treatment of hereditary angioneurotic edema [2]: used with success
